The subject of this data set is patients with HF and LVEF ≥40%. Nature of the data set: […]-HF (Example 2) safety: adverse events, hyperkalemia, serum potassium, eGFR, creatinine, vital signs. It is filed as in vivo, human. The conditions noted are these: number of patients (%); for Any Serious Adverse Events: treatment-emergent; for Elevated Serum Creatinine >[…] / Elevated Serum Creatinine ≥3.0 mg/dl / Elevated Serum Potassium >6.0 mmol/liter / Elevated Serum Potassium >[…] / Reduced Serum Potassium < […] / Systolic Blood Pressure <100 mm Hg: patients with at least one assessment. The source says: Safety assessments includes adverse events (AEs), serious adverse events (SAEs), vital signs including heart rate and blood pressure assessment. Safety laboratory tests includes blood chemistry, hematology and urinalysis.
The following safety procedures and variables have been assessed during the study: • SAEs and AEs leading to discontinuation of treatment with study intervention; • Change in body weight from baseline; • Change in serum potassium from baseline; • Number of participants with hyperkalemia (serum potassium >5.5 mmol/L); • Number of participants with severe hyperkalemia (serum potassium >6.0 mmol/L); • Number of participants with hospitalization for hyperkalemia; • Number of participants permanently discontinuing study intervention due to Hyperkalemia; • Change in vital signs (heart rate, SBP and DBP) from baseline; • Change in renal function measured by eGFR (CKD-EPI formula) change from baseline; • Number of participants with hospitalization for worsening of renal function; • Number of participants permanently discontinuing study intervention due to worsening of renal function; and • Changes in laboratory values from baseline.
AEs that occurred or worsened after the first dose of study drug and up to 3 days after the last dose of study drug have been considered as treatment-emergent AEs (TEAEs).
An overall summary of all AEs and treatment emergent AEs (TEAEs) has been generated by treatment group. The number and percentage of patients with TEAEs, post-treatment AEs occurring more than 3 days after last intake of study intervention, treatment-emergent SAEs, treatment-emergent study intervention-related AEs, treatment-emergent study intervention-related SAEs, TEAEs causing premature and permanent discontinuation of study intervention, treatment-emergent non-serious AEs, TEAEs by maximum intensity, drug-related TEAEs by maximum intensity has been summarized by treatment group using Medical Dictionary for Regulatory Activity (MedDRA) terms grouped by Primary System Organ Class and Preferred Term.
The number of patients with treatment-emergent (until 3 days after last study intervention administration) abnormal laboratory values above or below the normal range has been tabulated by the laboratory parameter and treatment group.
Summary statistics including changes from baseline have been calculated by treatment group and visit for all quantitative laboratory parameters, i.e. for hematology, clinical chemistry and urinalysis. Geometric statistics and ratios to baseline has been presented for urinary albumin-to-creatinine ratio (UACR), creatinine, and NT-proBNP, instead of arithmetic statistics with changes from baseline.
The following special safety parameters have been further assessed by displaying the number and percentage of patients with safety events as described below by treatment group, visit, and for any time on treatment (including unscheduled assessments) and until 3 days after last study intervention administration. This has also been performed by stratification factors.

The mark [1] stands for this setting: No SGLT2i Use, finerenone n = 2,601.

The values that follow come from US20250313559A1 (Bayer Aktiengesellschaft, priority 2024, published 2025).

Consider `CCOc1ncc(C)c2c1[C@H](c1ccc(C#N)cc1OC)C(C(N)=O)=C(C)N2` [finerenone, (4S)-4-(4-cyano-2-methoxyphenyl)-5-ethoxy-2,8-dimethyl-1,4-dihydro-1,6-naphthyridine-3-carboxamide], for which, under setting [1], the “Any Adverse Events leading to Treatment Discontinuation” value is on record as 90 (3.5%), the “Hyperkalemia leading to Treatment Discontinuation” value is listed as 12 (0.5%), the “Investigator Reported Hyperkalemia” value is recorded as 246 (9.5%) and the “Investigator Reported Hyperkalemia leading to Hospitalization” value is recorded as 14 (0.5%). Besides, the “Any Serious Adverse Events” value under setting [1] was 995 (38.3%). Also, under “No SGLT2i Use”, the “Elevated Serum Creatinine >[…]” value is 120 (4.8%), the “Elevated Serum Creatinine ≥3.0 mg/dl” value was 50 (2.0%), the “Elevated Serum Potassium >6.0 mmol/liter” value was 76 (3.0%) and the “Elevated Serum Potassium >[…]” value is recorded as 358 (14.2%). Under “No SGLT2i Use”, the “Reduced Serum Potassium < […]” value is 118 (4.7%) and the “Systolic Blood Pressure <100 mm Hg” value was 435 (17.2%). Under “SGLT2i Use, finerenone n = 392”, the “Any Adverse Events leading to Treatment Discontinuation” value is 6 (1.5%), the “Hyperkalemia leading to Treatment Discontinuation” value is on record as 1 (0.3%), the “Investigator Reported Hyperkalemia” value is reported as 43 (11.0%) and the “Investigator Reported Hyperkalemia leading to Hospitalization” value is 2 (0.5%). In addition, for the setting “SGLT2i Use, finerenone n = 392”, the “Any Serious Adverse Events” value is given as 162 (41.3%). In addition, for the setting “SGLT2i Use”, the “Elevated Serum Creatinine >[…]” value is 21 (5.5%), the “Elevated Serum Creatinine ≥3.0 mg/dl” value is 7 (1.8%), the “Elevated Serum Potassium >6.0 mmol/liter” value is recorded as 10 (2.6%) and the “Elevated Serum Potassium >[…]” value is recorded as 55 (14.5%). In addition, for the setting “SGLT2i Use”, the “Reduced Serum Potassium < […]” value is recorded as 9 (2.4%) and the “Systolic Blood Pressure <100 mm Hg” value is given as 103 (27.0%).
